In patent US20260108588A1, “A COMPLEX COMPRISING A ALPHA-LACTALBUMIN AND A FATTY ACID OR LIPID FOR USE IN THE TREATMENT OR PREVENTION OF CANCER” (LINNANE PHARMA AB, priority 2022, published 2026):

Experiments:
[1] = system: DLD1 colorectal carcinoma cells; test: Live cell imaging assay, cellular uptake of labelled BAMLET; assay type: cell-based, human; details: 21 μM, one hour
Experimental: To visualize the cellular uptake of BAMLET, cells were seeded on 6-well ibidi chambers (3.5×10^4 cells/well) overnight and then treated with Janelia Fluor-549 labeled (TOCRIS, Cat #6147) BAMLET mixed with unlabelled BAMLET (21 μM) for one hour at 37° C. The nuclei were counterstained for five minutes with DAPI (Abcam Cat #ab228549, 1:1,000) and uptake of labelled BAMLET was captured with the LSM 900 laser scanning confocal microscope with oil immersion ×63 objectives (Carl Zeiss).

[2] = system: intestinal tumors of Apc^Min/+ mice; test: Intestinal cancer model in Apc^Min/+ mice, BAMLET in the drinking water (eight weeks and long term); assay type: in vivo; details: vs sham
Experimental: (§1) Apc^Min/+ mice were obtained from Jackson Laboratories at about eight weeks of age. Genotyping was performed by PCR analysis of genomic DNA obtained from blood collected from the retro-orbital sinus. Multiple tumors were developed in the small intestine at eight to ten weeks. Mice were acclimated for about two weeks at the local animal facility at BMC, Lund University in order to reduce stress from transportation.
(§2) For BAMLET prophylaxis protocol, ten-week-old female Apc^Min/+ mice (n=10 mice per group) were provided daily with BAMLET (20 mg/day in 5 ml PBS) in the drinking water for eight weeks and sacrificed at 18 weeks of age. A similar treatment was used in the survival study groups where mice were observed until 37 weeks of age.
(§3) Mice were sacrificed by isoflurane inhalation. Tumor enumeration and sample collection was presented as previously described^28. Tumor numbers and size were determined using a dissecting microscope (Olympus) and evaluated by three blinded investigators.
(§4) The opened intestinal segments were spread flat between sheets of filter paper and fixed overnight in 10% neutral buffered formalin. Formalin-fixed sections were transferred to 70% ethanol and stained with 0.2% methylene blue (Sigma, #M9140). Stained sections were rinsed in deionized water and imaged by a dissecting microscope.
(§5) Swiss rolls of longitudinally opened intestinal segments were fixed overnight in 10% neutral buffered formalin. Samples were embedded in paraffin and 5 μm thick sections were further processed for histology and immunohistochemistry using antibodies for bovine alpha-Lactalbumin (ThermoFisher Scientific, Cat #A10-128A), β-catenin (CellSignaling, Cat #9562), Cyclin D1 (ThermoFisher Scientific, Cat #SC8396), Ki-67 (BD Biosciences, Cat #556003), VEGF (Abcam, Cat #ab46154), PD-1 (Abcam, Cat #ab214421) and TTF-1 (Abcam, Cat #ab227652) as previously described^28 with slight modifications. Citrate buffer (Dako Target Retrieval Solution, Agilent, Cat #S1699) was used for antigen retrieval for Cyclin D1, Ki-67, VEGF, bovine alpha-Lactalbumin and β-catenin staining. EDTA buffer (Abcam, Cat #ab64216) was used for antigen retrieval for TTF-1 staining. Immunohistochemistry was quantified by ImageJ. For Hematoxylin-Eosin (H&E) staining, Hematoxylin (ThermoFisher Scientific, Cat #7211) was used followed by Eosin-Y (ThermoFisher Scientific, Cat #7111) for counterstaining. Images were captured using the AX10 microscope or the Hamamatzu Nanozoomer scanner (Carl Zeiss) and the DAB-positive beta-catenin antibody fields (4-10) for each organ cross-sections were quantified by ImageJ.

[3] = system: intestine of tumor bearing APC^Min/+ mice; test: Real-time in vivo fluorescence imaging and immunohistochemistry of BAMLET in tumor-bearing mice
From the text: as §5
BAMLET was labeled using VivoTag 680XL Protein Labeling Kit (Perkin Elmer). Apc^Min/+ mice were orally gavaged with 10 mg of VivoTag 680-labelled BAMLET in 200 μl of PBS. The intestinal tissue samples were collected after 24 hours or 48 hours and imaged using an IVIS Spectrum imaging system (Perkin Elmer). BAMLET signal was acquired at fluorescent settings with 680 nm excitation.

[4] = system: intestine of healthy C57BL/6 mice; test: Real-time in vivo fluorescence imaging of BAMLET in healthy mice; details: oral gavage
[5] = system: lungs, livers, kidneys and spleens of Apc^Min/+ mice; test: Macroscopy, histology and immunohistochemistry of organs outside the intestine of Apc^Min/+ mice, long-term drinking water; assay type: in vivo
Experimental: as §2, §5

[6] = system: intestinal tumors of Apc^Min/+ mice; test: Intestinal cancer model in Apc^Min/+ mice, BAMLET oral gavage, tumor enumeration and histology; assay type: in vivo
Experimental: as §1
For BAMLET therapeutic protocol, ten-week-old female mice (n=10 per group) were orally gavaged with 20 mg of BAMLET in 400 μl PBS, twice daily for ten days. Mice were not given water or food five hours prior to BAMLET administration. Food and water were provided 30 minutes after BAMLET oral administration. Sham treated mice were gavaged with 400 μl PBS. Mice were sacrificed two weeks and five weeks after the end of the treatment and intestinal tissue samples were collected for further analysis.
as §3, §4, §5

PD-1 = PD-1 staining of intestinal sections; assay type: in vivo, mice; details: tumor and healthy tissue areas, long-term drinking water, vs sham
Experimental: For PD-1 immunofluorescence staining, paraffin sections were deparaffinized in xylene, rehydrated with reduced ethanol concentrations and then washed with deionized water. The slides were then immerged in target retrieval solution (Dako, S1699) and boiled for 20 minutes, followed by 30 minutes permeabilization with 0.25% Triton in PBS at room temperature. A blocking solution consisting in 5% goat serum in PBS was added on the sections for 1 h at room temperature, before adding the rabbit monoclonal anti-mouse PD-1 antibody (Abcam-ab214421, 1:150) in 1% goat serum and incubated overnight at 4° C. The slides were then washed with 0.025% PBS-T and stained with goat anti-rabbit […] secondary antibody (1:200 for 1 h at room temperature, Invitrogen cat. n. A11034). The nuclei were counterstained with DAPI for 15 minutes, washed in PBS, and then mounted with Fluoromount aqueous mounting media (Sigma, F4680). Images were captured with the Hamamatzu Nanozoomer scanner and the fluorescence intensity was quantified by ImageJ.

healthy C57BL/6 mice = test: BAMLET in healthy C57BL/6 mice: macroscopic inspection and intestinal gene expression analysis
Experimental: Approximately 5 mg of tissue was homogenized using a Tissuelyser (Qiagen) and total RNA was extracted using the RNeasy kit (Qiagen), amplified using a GeneChip 3'IVT Express Kit, hybridized onto Mouse Genome 430 PM array strips, and scanned using the GeneAtlas system (Affymetrix). Data was normalized using Robust Multi Average implemented in the Transcriptome Analysis Console software (v.4.0.1.36, Applied Biosystems, ThermoFisher Scientific). Relative expression was analyzed by ANOVA using the empirical Bayes method, and genes with an absolute fold change >1.5 or 2.0 were considered differentially expressed.
To identify effects on healthy tissues, healthy C57BL/6 mice received BAMLET by oral gavage or in the drinking water (FIG. 6). The effects were evaluated by macroscopic inspection of intestinal tissues and gene expression analysis.

[7] = long-term BAMLET in drinking water

BAMLET
uptake of labelled BAMLET [1]: rapidly internalized into the cytoplasm and nuclei | polyp number and polyp size ([2]; 20 mg/day in drinking water, after eight weeks): markedly reduced | loss of body weight [2, 7]: prevented | survival (Kaplan-Meier analysis) [2, 7]: increase in survival | total polyp number and polyp size [2, 7]: reduced | retention of VivoTag 680-labeled BAMLET in the intestine ([3]; 18-week-old APC^Min/+ mice, oral gavage, after 24 and 48 hours): Significant retention | time retained in tumor tissue ([3]; after the first oral dose): at least 48 hours | BAMLET staining in intestinal tissue sections ([3]; immunohistochemistry with BAMLET specific antibodies): detected | BAMLET retention in the intestines of healthy mice [4]: lack of BAMLET retention | number of lung areas with proliferating cells ([5]; TTF-1 / β-catenin stained lung sections, vs sham): markedly reduced | BAMLET staining in lungs, livers or kidneys ([5]; immunohistochemistry, in contrast to the intestine): not detected | β-catenin staining in lungs, livers and kidneys ([5]; long-term BAMLET in drinking water, vs sham): general reduction | macroscopic changes in intestine, peritoneal cavity and major organs ([5]; long-term follow up, vs sham): much less apparent | level of TTF-1 staining in areas with proliferating cells ([5]; lung sections, vs sham): markedly reduced | total polyp number ([6]; 20 mg gavage twice daily for ten days, two and five weeks post oral gavage, vs sham): lower | number of small tumors, fully formed polyps and confluent tumors along the intestinal wall ([6]; Apc^Min/+ mice, H&E sections, BAMLET vs sham (PBS)): reduced | tumor areas ([6]; BAMLET treated Apc^Min/+ mice vs sham group, FIG. 1f): smaller | villus structure ([6]; after short-term BAMLET treatment, H&E sections): normal villus structure was detected in the majority of sections | PD-1 staining (PD-1): significantly lower | inflammatory or necrotic changes in the intestines or peripheral organs (healthy C57BL/6 mice; gavage or drinking water, vs untreated controls): no evidence of inflammatory or necrotic changes | genes involved in lipid metabolism, glucose metabolism, insulin tolerance and immune regulation (healthy C57BL/6 mice; intestinal tissue): significantly affected | toxic response (gene expression) (healthy C57BL/6 mice; intestinal tissue): no evidence of a toxic response | number of regulated genes (healthy C57BL/6 mice; intestinal tissue, cut-off fold change ≥1.5, P<0.05): about 150 genes | macroscopic appearance of tissues outside the intestinal tract (healthy C57BL/6 mice; mouse, in vivo): No changes in macroscopic appearance | organ weights (healthy C57BL/6 mice; mouse, in vivo): no change in organ weights
